Experimental findings from ChEMBL document CHEMBL2169825, “Development of selective, potent RabGGTase inhibitors” (J Med Chem, 2012) are described below.

A short description of experiment [1]: Inhibition of RabGGTase in human HeLa cells after 6 hrs by reprenylation assay. The experiment is classed as cell-based.
For the next experiment, the system named is HCT-116. In words: Cytotoxicity against human HCT116 cells after 24 hrs by Alamar Blue assay. The following applies: HCT-116, 24 h. The experiment is classed as functional, cell-based.
Experiment [2] is described as follows: Inhibition of RabGGTase using NBD-FPP as substrate after 5 mins by fluorometric assay.
Another experiment has as its system HeLa. Briefly: Cytotoxicity against human HeLa cells after 24 hrs by Alamar Blue assay. In kind it is functional, cell-based.
Another experiment deals with PBMC. In words: Cytotoxicity against human PBMC cells after 24 hrs by Alamar Blue assay. The experiment is classed as cell-based.
Experiment [3] in a line: Inhibition of FTase using NBD-GPP as substrate after 10 mins by solution based fluorometric assay.
The nature of experiment [4]: Inhibition of GGTase 1 using NBD-FPP as substrate after 10 mins by solution based fluorometric assay.
Another experiment deals with A2780. Briefly: Cytotoxicity against human A2780 cells after 24 hrs by Alamar Blue assay. The following applies: A2780, 24 h. In kind it is functional, cell-based.
A short description of experiment [5]: Inhibition of RabGGTase using [3H]GGPP as substrate after 1 hr by scintillation proximity assay.
Another experiment deals with DU-145. In words: Cytotoxicity against human DU145 cells after 24 hrs by Alamar Blue assay. In kind it is functional, cell-based. The settings on record: DU-145, 24 h.
The next experiment concerns A549. In words: Cytotoxicity against human A549 cells after 24 hrs by Alamar Blue assay. The settings on record: A549, 24 h. The experiment is classed as functional, cell-based.

For the molecule `COc1ccc(S(=O)(=O)N2Cc3cc(-c4ccc(C=O)o4)ccc3N(Cc3cncn3C)C[C@H]2Cc2ccc(OC(=O)NCc3ccccc3)cc2)cc1`, the concentration for half-maximal inhibition (IC50) in [1] was 311 nM; in the experiment on HCT-116, 443 nM; in experiment [2] it was 616 nM; in the experiment on HeLa, 797 nM; in the experiment on PBMC, over 10000 nM; in [3] it was over 9700 nM. Besides, the values for the half-maximal inhibitory concentration (IC50) (in experiment [4]; in the experiment with A2780; in [5]) were over 99500 nM, 589 nM and 1550 nM, respectively.

Consider `CCCCCCNC(=O)c1ccc2c(c1)CN(S(=O)(=O)c1ccc(OC)cc1)[C@H](Cc1ccc(O)cc1)CN2Cc1cncn1C`, for which the half-inhibitory concentration (IC50) in experiment [1] is 3890 nM; in experiment [3], 20.7 nM; in experiment [4] it was over 99500 nM; in [5], 70.5 nM.

Regarding `COc1ccc(S(=O)(=O)N2Cc3cc(-c4ccc(C#N)o4)ccc3N(Cc3cncn3C)C[C@H]2Cc2ccc(OC(=O)NCc3ccccc3)cc2)cc1`, the IC50 was 49 nM in experiment [1]; 35 nM in the experiment on HCT-116; 41.6 nM in experiment [2]; 101 nM in the experiment on HeLa; over 10000 nM in the experiment on PBMC; over 9700 nM in experiment [3]. Besides, the concentration for half-maximal inhibition (IC50) in experiment [4] is over 99500 nM; with A2780 it was 115 nM; in experiment [5] it was 260 nM.

For `COc1ccc(S(=O)(=O)N2Cc3cc(-c4ccnc(OC)c4)ccc3N(Cc3cncn3C)C[C@H]2Cc2ccc(Nc3ccccc3)cc2)cc1`, the concentration for half-maximal inhibition (IC50) was 2430 nM in experiment [3], over 99500 nM in experiment [4] and 5720 nM in experiment [5].

In the case of `COc1ccc(S(=O)(=O)N2Cc3cc(-c4ccc(C#N)o4)ccc3N(Cc3cncn3C)C[C@H]2Cc2ccc(OCc3ccccc3)cc2)cc1`, the 50% inhibitory concentration (IC50) in experiment [1] is 213 nM; in [3], over 9700 nM; in [4] it was over 99500 nM; in experiment [5], 577 nM.

In the case of `COc1ccc(S(=O)(=O)N2Cc3cc(-c4cc(F)cc(F)c4)ccc3N(Cc3cncn3C)C[C@H]2Cc2ccc(O)cc2)cc1`, the IC50 in experiment [3] was 172 nM; in experiment [4], over 99500 nM; in [5] it was 185 nM.

`COc1ccc(S(=O)(=O)N2Cc3cc(-c4ccnc(OC)c4)ccc3N(Cc3cncn3C)C[C@H]2Cc2ccc(-c3cccnc3)cc2)cc1`: the IC50 in experiment [1] is 300 nM; in [3], 79 nM; in experiment [4], over 99500 nM; in experiment [5], 121 nM.

Take `COc1ccc(S(=O)(=O)N2Cc3cc(-c4ccc(C#N)o4)ccc3N(Cc3cncn3C)C[C@H]2Cc2ccc(-c3cccnc3)cc2)cc1`: the IC50 in [3] was 110 nM; in experiment [4] it was over 99500 nM; in experiment [5], 37 nM.

Turning to `COc1ccc(S(=O)(=O)N2Cc3cc(-c4ccc(C#N)o4)ccc3N(Cc3cncn3C)C[C@H]2Cc2ccc(Nc3ccccc3)cc2)cc1`, the IC50 in experiment [3] was 1210 nM; in experiment [4] it was over 99500 nM; in experiment [5] it was 1060 nM.

`COc1ccc(S(=O)(=O)N2Cc3cc(C#N)ccc3N(Cc3cncn3C)C[C@H]2Cc2ccc(OS(=O)(=O)C(F)(F)F)cc2)cc1`: the half-inhibitory concentration (IC50) in experiment [1] was over 10000 nM; in the experiment with DU-145, 3100 nM; in the experiment on A549, 2220 nM; in [2], 18600 nM; with HeLa, 1960 nM; in the experiment on PBMC it was over 10000 nM. For the same molecule, the IC50 in experiment [4] was over 99500 nM; in the experiment on A2780 it was 92 nM; in experiment [5], 1500 nM.

Consider `CCN(CC)C(=O)Oc1ccc(C[C@@H]2CN(Cc3cncn3C)c3ccc(C#N)cc3CN2S(=O)(=O)c2ccc(OC)cc2)cc1`, for which the IC50 in [1] is 343 nM; with A549, 412 nM; in the experiment on HCT-116, 75 nM; in the experiment with HeLa it was 745 nM; with PBMC it was over 10000 nM; in experiment [4], 2020 nM. For the same molecule, the figures for the IC50 (with A2780; in experiment [5]) were 43 nM and 123 nM, respectively.

In the case of `COc1ccc(S(=O)(=O)N2Cc3cc(-c4ccnc(OC)c4)ccc3N(Cc3cncn3C)C[C@H]2Cc2ccc(O)cc2)cc1`, the IC50 in experiment [3] was 18.6 nM; in experiment [4], over 99500 nM; in experiment [5], 5.5 nM.

Consider `COc1ccc(S(=O)(=O)N2Cc3cc(-c4cccc(C#N)c4)ccc3N(Cc3cncn3C)C[C@H]2Cc2ccc(O)cc2)cc1`, for which the IC50 was 34.4 nM in [3], over 99500 nM in experiment [4] and 22.5 nM in experiment [5].

Take `COc1ccc(S(=O)(=O)N2Cc3cc(-c4ccc(C=O)o4)ccc3N(Cc3cncn3C)C[C@H]2Cc2ccc(-c3ccc(Cl)cc3)cc2)cc1`: the results for the IC50 in experiment [3], in experiment [4] and in experiment [5] were over 9700 nM, over 99500 nM and 2240 nM, respectively.

`COc1ccc(S(=O)(=O)N2Cc3cc(-c4ccc(Cl)cc4)ccc3N(Cc3cncn3C)C[C@H]2Cc2ccc(O)cc2)cc1`: the 50% inhibitory concentration (IC50) was 194 nM in experiment [3], over 99500 nM in experiment [4] and 706 nM in [5].

Regarding `COc1ccc(S(=O)(=O)N2Cc3cc(-c4ccc(C=O)o4)ccc3N(Cc3cncn3C)C[C@H]2Cc2ccc(O)cc2)cc1`, the concentration for half-maximal inhibition (IC50) in experiment [1] is 120 nM; in [2], 206 nM; in [3], 7 nM; in [4] it was over 99500 nM.

For `COc1ccc(S(=O)(=O)N2Cc3cc(-c4ccncc4)ccc3N(Cc3cncn3C)C[C@H]2Cc2ccc(O)cc2)cc1`, the half-inhibitory concentration (IC50) is 13.6 nM in [3], over 99500 nM in [4] and under 4 nM in experiment [5].

`COc1ccc(S(=O)(=O)N2Cc3cc(-c4ccc(C#N)o4)ccc3N(Cc3cncn3C)C[C@H]2Cc2ccc(OS(=O)(=O)C(F)(F)F)cc2)cc1`: the concentration for half-maximal inhibition (IC50) was 54 nM in experiment [1]; 71 nM in the experiment on HCT-116; 130 nM in the experiment with HeLa; over 10000 nM in the experiment with PBMC; 222 nM with A2780.

Turning to `COc1ccc(S(=O)(=O)N2Cc3cc(N4CCN(C(C)=O)CC4)ccc3N(Cc3cncn3C)C[C@H]2Cc2ccc(O)cc2)cc1`, the half-maximal inhibitory concentration (IC50) is 112 nM in experiment [3], over 99500 nM in [4] and 27 nM in experiment [5].

As to `COc1ccc(S(=O)(=O)N2Cc3cc(C#N)ccc3N(Cc3cncn3C)C[C@H]2Cc2ccc(OCc3ccccc3)cc2)cc1`, the half-maximal inhibitory concentration (IC50) was 756 nM in the experiment with DU-145; 746 nM with A549; 1050 nM with HCT-116; 441 nM in experiment [2]; 372 nM in the experiment on HeLa; over 10000 nM in the experiment on PBMC. Further, the 50% inhibitory concentration (IC50) is 99.3 nM in experiment [3], over 99500 nM in [4], 265 nM in the experiment on A2780 and 181 nM in [5].

Regarding `COc1ccc(S(=O)(=O)N2Cc3cc(Nc4ccccc4)ccc3N(Cc3cncn3C)C[C@H]2Cc2ccc(O)cc2)cc1`, the values for the IC50 in experiment [3], in experiment [4] and in experiment [5] were 454 nM, over 99500 nM and 246 nM, respectively.

For the molecule `COc1ccc(S(=O)(=O)N2Cc3cc(C#N)ccc3N(Cc3cncn3C)C[C@H]2Cc2ccc(OC/C=C(\C)CCC=C(C)C)cc2)cc1`, the concentration for half-maximal inhibition (IC50) in experiment [1] is 278 nM; in the experiment on A549, 653 nM; in the experiment with HCT-116, 1430 nM; in experiment [2], 2070 nM; in the experiment on PBMC, over 10000 nM; in experiment [3] it was 1010 nM. Besides, the IC50 is over 99500 nM in [4], 1380 nM in the experiment on A2780 and 23.5 nM in experiment [5].

Regarding `COc1ccc(S(=O)(=O)N2Cc3cc(C#N)ccc3N(Cc3cncn3C)C[C@H]2Cc2ccc(O)cc2)cc1`, the concentration for half-maximal inhibition (IC50) in experiment [1] amounted to 115 nM; with DU-145, 162 nM; in the experiment with A549, 315 nM; in the experiment with HCT-116, 172 nM; in [2], 1010 nM; with HeLa it was 130 nM. Further, the IC50 in experiment [3] was 5.2 nM; in experiment [4], over 99500 nM; in the experiment on A2780, 100 nM; in experiment [5], under 4 nM.

As to `CCCCCCNC(=O)Oc1ccc(C[C@@H]2CN(Cc3cncn3C)c3ccc(C#N)cc3CN2S(=O)(=O)c2ccc(OC)cc2)cc1`, the half-inhibitory concentration (IC50) in experiment [1] is 77.3 nM; with DU-145, 228 nM; with A549, 289 nM; in the experiment on HCT-116, 355 nM; in experiment [2], 243 nM; in experiment [4] it was over 99500 nM. Further, the half-inhibitory concentration (IC50) with A2780 is 233 nM; in [5] it was 15.5 nM.

With `COc1ccc(S(=O)(=O)N2Cc3cc(-c4ccc(C=O)o4)ccc3N(Cc3cncn3C)C[C@H]2Cc2ccc(OS(=O)(=O)C(F)(F)F)cc2)cc1`, the IC50 was over 9700 nM in experiment [3], over 99500 nM in [4] and 4290 nM in experiment [5].

On to `COc1ccc(S(=O)(=O)N2Cc3cc(C(=O)NCc4ccccc4)ccc3N(Cc3cncn3C)C[C@H]2Cc2ccc(O)cc2)cc1`, for which the IC50 is 7 nM in [3], over 99500 nM in experiment [4] and 19 nM in experiment [5].

With `COc1ccc(S(=O)(=O)N2Cc3cc(-c4ccnc(OC)c4)ccc3N(Cc3cncn3C)C[C@H]2Cc2ccc(OCc3ccccc3)cc2)cc1`, the IC50 in experiment [3] was 2560 nM; in experiment [4] it was over 99500 nM; in experiment [5], 5240 nM.

Consider `COc1ccc(S(=O)(=O)N2Cc3cc(-c4ccnc(OC)c4)ccc3N(Cc3cncn3C)C[C@H]2Cc2ccc(OC(=O)NCc3ccccc3)cc2)cc1`, for which the IC50 in experiment [1] is 338 nM; in experiment [3], 321 nM; in experiment [4] it was over 99500 nM; in experiment [5], 55 nM.

In the case of `COc1ccc(S(=O)(=O)N2Cc3cc(-c4ccc(C#N)o4)ccc3N(Cc3cncn3C)C[C@H]2Cc2ccc(O)cc2)cc1`, the IC50 in experiment [1] is 11 nM; in the experiment on HCT-116, 2 nM; in [2] it was 62.5 nM; in the experiment on HeLa, 21 nM; in the experiment with PBMC, over 10000 nM; in [3], 26.9 nM. Besides, the half-inhibitory concentration (IC50) in [4] was over 99500 nM; with A2780, 18 nM; in experiment [5] it was under 14 nM.

Regarding `COc1ccc(S(=O)(=O)N2Cc3cc(-c4ccco4)ccc3N(Cc3cncn3C)C[C@H]2Cc2ccc(O)cc2)cc1`, the IC50 was 81.7 nM in experiment [3], over 99500 nM in experiment [4] and 55 nM in experiment [5].
